In patent US20080113983A1, “Nicotinic Acetylcholine Receptor Ligands” (AstraZeneca AB, priority 2004, published 2008) one finds Kd data, which are given here for 1 compound.

The experiment deals with T1, α4 nAChR receptor (Rattus norvegicus, UniProt P09483+P12390).
T1 construct: from tissue; host or cells: rat cortical brain membranes
Description: Radioligand ([125I]-IPH) binding to rat cortical membranes. Conditions: saturation curves fitted to a one site model. As to the method:
Assay for affinity at an α4 nAChR receptor by measuring the binding of [^3H]-(-)-nicotine binding to rat cortical membranes.
A procedure modified from Martino-Barrows and Kellar (Mol Pharm (1987) 31:169-174) may be used. Rat cortical brain membranes are prepared as described in the [^125I]α-BTX binding assay, except that a 500-12000×g membrane fraction is prepared. Membranes (30-150 μg) are incubated with 30-100 pM of the epibatidine analog [^125I]-IPH ((+/−)-exo-2-(2-iodo-5-pyridyl)-7-azabicyclo-[2,2,1]heptane) together with test compound in HB for 1 hour at room temperature with gentle shaking. Membranes may be recovered as described for the [^125I]α-BTX binding assay. Non-specific binding may be determined by 100 μM carbachol. Typically specific binding is about 84%.
Analysis of Binding Data Obtained in α7 nAChR or α4 nAChR receptor assays
IC50 values and pseudo Hill coefficients (nH) may be calculated using the non-linear curve fitting program ALLFIT (DeLean A, Munson P J and Rodbard D (1977) Am. J. Physiol., 235:E97-E102). […] Ki values may be estimated using the general Cheng-Prusoff equation:
Ki=[IC50 ]/((2+([ligand]/KD)^n)^1/n−1)
where a value of n=1 is used whenever nH<1.5 and a value of n=2 is used when nH>1.5. To account for variability, assays may be performed in triplicate and variability will typically be ±5%. Ki values may be determined using six to 11 drug concentrations.

T1 sequence (P12390 25-500): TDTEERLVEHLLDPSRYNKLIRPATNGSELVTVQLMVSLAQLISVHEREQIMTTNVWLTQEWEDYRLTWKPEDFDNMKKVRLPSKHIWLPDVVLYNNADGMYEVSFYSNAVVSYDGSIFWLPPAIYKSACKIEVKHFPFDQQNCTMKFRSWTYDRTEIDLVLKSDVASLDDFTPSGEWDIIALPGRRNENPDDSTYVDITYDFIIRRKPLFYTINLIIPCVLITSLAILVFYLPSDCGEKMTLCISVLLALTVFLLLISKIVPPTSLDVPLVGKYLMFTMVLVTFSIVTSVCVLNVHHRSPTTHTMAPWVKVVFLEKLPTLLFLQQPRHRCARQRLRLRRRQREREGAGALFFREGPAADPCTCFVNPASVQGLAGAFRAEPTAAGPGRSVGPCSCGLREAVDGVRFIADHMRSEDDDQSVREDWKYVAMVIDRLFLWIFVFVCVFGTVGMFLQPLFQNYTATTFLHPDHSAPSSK
T1 sequence (P09483 31-630): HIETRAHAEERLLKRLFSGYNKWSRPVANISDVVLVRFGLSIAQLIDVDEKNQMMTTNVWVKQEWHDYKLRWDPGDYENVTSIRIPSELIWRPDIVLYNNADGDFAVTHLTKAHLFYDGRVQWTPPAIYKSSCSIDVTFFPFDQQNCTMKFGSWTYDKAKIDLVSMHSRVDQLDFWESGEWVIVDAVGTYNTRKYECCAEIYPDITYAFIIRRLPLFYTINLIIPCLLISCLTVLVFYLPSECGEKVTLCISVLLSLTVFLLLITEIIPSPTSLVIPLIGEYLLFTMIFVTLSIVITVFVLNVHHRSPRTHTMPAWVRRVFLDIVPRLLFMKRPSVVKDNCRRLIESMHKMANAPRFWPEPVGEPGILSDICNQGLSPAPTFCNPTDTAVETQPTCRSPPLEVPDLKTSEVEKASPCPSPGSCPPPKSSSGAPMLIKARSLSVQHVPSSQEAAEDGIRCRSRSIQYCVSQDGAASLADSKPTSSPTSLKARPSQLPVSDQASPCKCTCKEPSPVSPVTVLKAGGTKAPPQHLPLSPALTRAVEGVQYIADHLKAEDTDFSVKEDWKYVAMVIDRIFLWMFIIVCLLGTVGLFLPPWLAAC

Turning to `Ic1ccc(C2CC3CCC2N3)cn1` (racemic) [[^125I]-IPH, (+/−)-exo-2-(2-iodo-5-pyridyl)-7-azabicyclo-[2,2,1]heptane], the Kd was 0.064 nM.
